{
  "source": "patent US20090233942A1",
  "about": "“Genetic markers associated with response to antidepressants” (priority 2008, published 2009)",
  "test_system": "patients with MDD",
  "experiment": "Five Phase II studies of vilazodone, eight weeks of treatment",
  "format": "in vivo, human",
  "text": "As part of the vilazodone development program, five Phase II studies have been conducted, all in patients with MDD. These studies randomized 2,098 patients for eight weeks of treatment, 1196 of whom received vilazodone.",
  "data": [
    {"smiles": "Cl.N#Cc1ccc2[nH]cc(CCCCN3CCN(c4ccc5oc(C(N)=O)cc5c4)CC3)c2c1", "note": "[Vilazodone, 5-{4-[4-(5-Cyano-3-indolyl)-butyl]-1-piperazinyl}-benzofuran-2-carboxamide hydrochloride]", "values": [
      {"measurement": "overall safety", "setting": "Phase II studies", "value": "generally shown to be safe"},
      {"measurement": "clinically significant finding from ophthalmologic examinations", "setting": "Phase II, subjects treated with vilazodone", "value": "increase in the incidence of mild ocular drying"},
      {"measurement": "primary efficacy variable compared to placebo", "setting": "each of the Phase II studies", "value": "did not show a statistically significant difference"},
      {"measurement": "response stratified by baseline disease severity", "setting": "exploratory analyses of Phase II studies", "value": "a larger treatment effect is observed for more severely depressed patients"},
      {"measurement": "most common adverse events", "setting": "reported by at least ten percent of vilazodone-treated patients, Phase II, MDD", "value": "nausea, diarrhea, headache, insomnia, dizziness, dry mouth, somnolence, abnormal dreams, and vomiting"}
    ]}
  ]
}
